Measurements reported in patent US20250052744A1, “Dyes and Uses Thereof” (The University of Liverpool, priority 2021, published 2025).

How the values were obtained:
[1] = system: Staphylococcus aureus; assay: Qualitative dye staining on agarose pads (EVOS M7000); format: cell-based; parameters: key to Relative fluorescent intensity: Very high: If the cells looked twice as big in the fluorescent channel, it was marked as having “very high” relative fluorescent intensity; High: if the cells looked bigger in the fluorescent channel, it was marked as having “high” relative fluorescent intensity; Medium: If the cells looked almost the same size in the fluorescent channel and the bright field, it was marked as having “medium” relative fluorescent intensity; Low: If the cells looked smaller in the fluorescent channel as compared to the brightfield but still the whole cell was visible, it was marked as having “low” relative fluorescent intensity; Negligible: If only a few traces of a cell was visible in the fluorescent channel, it was marked as having “negligible” relative fluorescent intensity; details: DiSC3(5) 3 μM, SYBR Green I 10×, SYTO 13 3 μM, FM4-64 15 μM
[2] = system: Escherichia coli; assay: as above; format: cell-based; parameters: key to Relative fluorescent intensity: Very high: If the cells looked twice as big in the fluorescent channel, it was marked as having “very high” relative fluorescent intensity; High: if the cells looked bigger in the fluorescent channel, it was marked as having “high” relative fluorescent intensity; Medium: If the cells looked almost the same size in the fluorescent channel and the bright field, it was marked as having “medium” relative fluorescent intensity; Low: If the cells looked smaller in the fluorescent channel as compared to the brightfield but still the whole cell was visible, it was marked as having “low” relative fluorescent intensity; Negligible: If only a few traces of a cell was visible in the fluorescent channel, it was marked as having “negligible” relative fluorescent intensity; details: DiSC3(5) 3 μM, SYBR Green I 10×, SYTO 13 3 μM, FM4-64 15 μM
[3] = Table 6 thresholds, Staphylococcus aureus
[4] = Table 7 commercial strain S. Aureus NCTC 9369
[5] = Table 7 commercial strain S. aureus NCTC 8532
[6] = Table 8 sample Staphylococcus aureus (041)
[7] = Table 8 sample Staphylococcus aureus (042)
[8] = Table 8 sample Staphylococcus aureus (043)
[9] = Table 6 thresholds, Escherichia coli
[10] = Table 7 commercial strain E. coli SEC 27
[11] = Table 7 commercial strain E. coli SEC 93
[12] = Table 8 sample Escherichia coli (051)
[13] = Table 8 sample Escherichia coli (052)
[14] = Table 8 sample Escherichia coli (053)

CCCN1C(=CC=CC=Cc2sc3ccccc3[n+]2CCC)Sc2ccccc21.[I-] [DiSC3(5), 3,3′-Dipropylthiadicarbocyanine Iodide]
Percentage of cells stained [1, 3]: Almost all | Relative fluorescent intensity [1, 3]: high and High | Percentage of cells stained [1, 4]: Almost all | Relative fluorescent intensity [1, 4]: High | Percentage of cells stained [1, 5]: Almost all | Relative fluorescent intensity [1, 5]: High | Percentage of cells stained [1, 6]: Almost all | Relative fluorescent intensity [1, 6]: High | Percentage of cells stained [1, 7]: Almost all | Relative fluorescent intensity [1, 7]: High | Percentage of cells stained [1, 8]: Almost all | Relative fluorescent intensity [1, 8]: High | Percentage of cells stained [2, 9]: Almost all | Relative fluorescent intensity [2, 9]: Medium | Percentage of cells stained [2, 10]: Almost all | Relative fluorescent intensity [2, 10]: Medium | Percentage of cells stained [2, 11]: Almost all | Relative fluorescent intensity [2, 11]: Medium | Percentage of cells stained [2, 12]: Almost all | Relative fluorescent intensity [2, 12]: Medium | Percentage of cells stained [2, 13]: Almost all | Relative fluorescent intensity [2, 13]: Medium | Percentage of cells stained [2, 14]: Almost all | Relative fluorescent intensity [2, 14]: Medium

CCN(CC)c1ccc(C=CC=CC=Cc2cc[n+](CCC[N+](CC)(CC)CC)cc2)cc1.[Br-].[Br-] [FM 4-64, N-(3-Triethylammoniumpropyl)-4-(6-(4-(Diethylamino) Phenyl) Hexatrienyl) Pyridinium Dibromide]
Percentage of cells stained [1, 3]: Almost all | Relative fluorescent intensity [1, 3]: Medium-high | Percentage of cells stained [1, 4]: Almost all | Relative fluorescent intensity [1, 4]: High | Percentage of cells stained [1, 5]: Almost all | Relative fluorescent intensity [1, 5]: Medium | Percentage of cells stained [1, 6]: Almost all | Relative fluorescent intensity [1, 6]: High | Percentage of cells stained [1, 7]: Almost all | Relative fluorescent intensity [1, 7]: Medium | Percentage of cells stained [1, 8]: Almost all | Relative fluorescent intensity [1, 8]: Medium | Percentage of cells stained [2, 9]: Almost all | Relative fluorescent intensity [2, 9]: Medium | Percentage of cells stained [2, 10]: Almost all | Relative fluorescent intensity [2, 10]: Medium | Percentage of cells stained [2, 11]: Almost all | Relative fluorescent intensity [2, 11]: Medium | Percentage of cells stained [2, 12]: Almost all | Relative fluorescent intensity [2, 12]: Medium | Percentage of cells stained [2, 13]: Almost all | Relative fluorescent intensity [2, 13]: Medium | Percentage of cells stained [2, 14]: Almost all | Relative fluorescent intensity [2, 14]: Medium

CCCN(CCCN(C)C)c1cc(/C=C2/Sc3ccccc3N2C)c2ccccc2[n+]1-c1ccccc1 [SYBR Green I, N′,N′-dimethyl-N-[4-[(E)-(3-methyl-1,3-benzothiazol-2-ylidene)methyl]-1-phenylquinolin-1-ium-2-yl]-N-propylpropane-1,3-diamine]
Percentage of cells stained [1, 3]: Almost all | Relative fluorescent intensity [1, 3]: high | Relative fluorescent intensity ([1]; Table 6 thresholds, Staphylococcus aureus, listed as SYBR Green): High | Percentage of cells stained [1, 4]: Almost all | Relative fluorescent intensity [1, 4]: High | Percentage of cells stained [1, 5]: Almost all | Relative fluorescent intensity [1, 5]: High | Percentage of cells stained [1, 6]: Almost all | Relative fluorescent intensity [1, 6]: High | Percentage of cells stained [1, 7]: Almost all | Relative fluorescent intensity [1, 7]: High | Percentage of cells stained [1, 8]: Almost all | Relative fluorescent intensity [1, 8]: High | Percentage of cells stained [2, 9]: Almost all | Relative fluorescent intensity [2, 9]: Medium | Percentage of cells stained [2, 10]: Almost all | Relative fluorescent intensity [2, 10]: Medium | Percentage of cells stained [2, 11]: Almost all | Relative fluorescent intensity [2, 11]: Medium | Percentage of cells stained [2, 12]: Almost all | Relative fluorescent intensity [2, 12]: Medium | Percentage of cells stained [2, 13]: Almost all | Relative fluorescent intensity [2, 13]: Medium | Percentage of cells stained [2, 14]: Almost all | Relative fluorescent intensity [2, 14]: Medium
